Measurements published in ChEMBL document CHEMBL5108067, “Discovery of Potent OTUB1/USP8 Dual Inhibitors Targeting Proteostasis in Non-Small-Cell Lung Cancer” (J Med Chem, 2022).
Activity calls are given as the source filed them. No cut-off for these calls is given here.

Tests used:
[1] = target: T1, Ubiquitin thioesterase OTUB1 (Homo sapiens, UniProt Q96FW1); assay: Binding affinity to OTUB1 in HEK293T cells at 0.5 uM preincubated for 2 hrs followed by UV irradiation and measured after 20 mins by Western blot analysis; type: cell-based; conditions: time 140.0 min
[2] = target: T1, Ubiquitin thioesterase OTUB1; assay: Inhibition of N-terminal His-6 tagged OTUB1 (40 to 271 residues) (unknown origin) expressed in Escherichia coli BL21 (DE3) cells using Ub-Rho measured after 0.5 to 3 hrs by fluorescence based Plate reader method
[3] = target: T1, Ubiquitin thioesterase OTUB1; assay: Binding affinity to OTUB1 in HEK293T cells at […] preincubated for 30 mins followed by UV irradiation and measured after 20 mins by Western blot analysis; type: cell-based; conditions: dose 2.5 µM, time 50.0 min
[4] = target: T1, Ubiquitin thioesterase OTUB1; assay: Binding affinity to OTUB1 in HEK293T cells at 1 uM preincubated for 2 hrs followed by UV irradiation and measured after 20 mins by silver staining based gel electrophoresis assay; type: cell-based; conditions: time 140.0 min
[5] = target: T1, Ubiquitin thioesterase OTUB1; assay: Inhibition of N-terminal His-6 tagged OTUB1 (40 to 271 residues) (unknown origin) expressed in Escherichia coli BL21 (DE3) cells at […] using Ub-Rho measured after 0.5 to 3 hrs by fluorescence based Plate reader method relative to control; conditions: dose 2.5 µM, time 0.5-3 hrs
[6] = target: T1, Ubiquitin thioesterase OTUB1; assay: Inhibition of N-terminal His-6 tagged OTUB1 (40 to 271 residues) (unknown origin) expressed in Escherichia coli BL21 (DE3) cells at 10 nM using Ub-Rho measured after 0.5 to 3 hrs by fluorescence based Plate reader method relative to control; conditions: time 0.5-3 hrs, values are per cent of control
[7] = target: T2, Ubiquitin carboxyl-terminal hydrolase 8 (Homo sapiens) (UniProt P40818); assay: Inhibition of N-terminal His-6 tagged USP8 (734 to 1110 residues) (unknown origin) expressed in Escherichia coli BL21 (DE3) cells at 100 nM measured after 3 hrs by fluorescence based Plate reader method relative to control; conditions: values are per cent of control
T2 sequence (whole entry): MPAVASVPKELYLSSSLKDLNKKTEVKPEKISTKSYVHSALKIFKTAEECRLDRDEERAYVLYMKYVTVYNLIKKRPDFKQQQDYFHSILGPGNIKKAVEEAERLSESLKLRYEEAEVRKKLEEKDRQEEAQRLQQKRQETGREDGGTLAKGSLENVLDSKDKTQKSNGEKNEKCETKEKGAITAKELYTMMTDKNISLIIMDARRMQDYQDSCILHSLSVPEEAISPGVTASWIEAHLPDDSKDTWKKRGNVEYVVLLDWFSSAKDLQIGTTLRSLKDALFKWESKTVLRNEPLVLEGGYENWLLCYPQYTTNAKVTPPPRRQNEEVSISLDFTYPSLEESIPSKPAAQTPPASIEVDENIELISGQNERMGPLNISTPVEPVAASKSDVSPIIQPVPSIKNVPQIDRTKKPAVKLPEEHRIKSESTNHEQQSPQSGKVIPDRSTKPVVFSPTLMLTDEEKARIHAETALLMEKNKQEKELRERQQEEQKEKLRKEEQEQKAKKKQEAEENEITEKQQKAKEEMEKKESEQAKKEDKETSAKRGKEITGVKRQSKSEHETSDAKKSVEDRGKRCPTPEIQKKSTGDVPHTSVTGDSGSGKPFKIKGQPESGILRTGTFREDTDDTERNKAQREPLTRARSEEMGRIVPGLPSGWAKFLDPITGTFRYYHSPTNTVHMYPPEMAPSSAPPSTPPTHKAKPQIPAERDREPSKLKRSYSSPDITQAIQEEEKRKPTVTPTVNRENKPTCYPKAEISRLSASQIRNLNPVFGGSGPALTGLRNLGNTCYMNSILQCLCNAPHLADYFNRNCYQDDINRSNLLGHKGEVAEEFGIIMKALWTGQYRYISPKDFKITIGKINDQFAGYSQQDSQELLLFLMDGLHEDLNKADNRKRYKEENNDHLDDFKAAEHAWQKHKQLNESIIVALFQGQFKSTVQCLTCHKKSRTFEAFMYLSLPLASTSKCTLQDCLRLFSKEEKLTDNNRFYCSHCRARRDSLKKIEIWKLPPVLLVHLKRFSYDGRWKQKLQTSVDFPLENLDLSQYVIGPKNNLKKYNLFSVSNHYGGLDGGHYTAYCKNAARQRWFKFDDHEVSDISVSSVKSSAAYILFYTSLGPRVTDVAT

[8] = Aqueous solubility of the compound measured after 24 hr by […] LC-MS/MS analysis; type: physicochemical; conditions: buffer
[9] = target: T1, Ubiquitin thioesterase OTUB1; assay: Inhibition of N-terminal His-6 tagged OTUB1 (40 to 271 residues) (unknown origin) expressed in Escherichia coli BL21 (DE3) cells at 100 nM using Ub-Rho measured after 0.5 to 3 hrs by fluorescence based Plate reader method relative to control; conditions: time 0.5-3 hrs, values are per cent of control
[10] = target: T2, Ubiquitin carboxyl-terminal hydrolase 8 (Homo sapiens); assay: Inhibition of N-terminal His-6 tagged USP8 (734 to 1110 residues) (unknown origin) expressed in Escherichia coli BL21 (DE3) cells at 10 nM measured after 3 hrs by fluorescence based Plate reader method relative to control; conditions: values are per cent of control
[11] = target: T1, Ubiquitin thioesterase OTUB1; assay: Binding affinity to OTUB1 in HEK293T cells at 5 uM preincubated for 30 mins followed by UV irradiation and measured after 20 mins by Western blot assay; type: cell-based; conditions: time 50.0 min

T1 sequence (Q96FW1 whole entry, the tested form may be a part): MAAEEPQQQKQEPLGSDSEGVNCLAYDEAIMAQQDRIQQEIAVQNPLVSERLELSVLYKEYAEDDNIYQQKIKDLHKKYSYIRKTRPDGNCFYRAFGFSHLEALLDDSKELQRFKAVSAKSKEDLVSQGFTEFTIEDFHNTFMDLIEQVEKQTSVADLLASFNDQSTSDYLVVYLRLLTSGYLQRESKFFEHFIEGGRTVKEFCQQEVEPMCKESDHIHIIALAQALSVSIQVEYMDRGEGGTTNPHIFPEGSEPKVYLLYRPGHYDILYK

SMILES	IC50 [2] [µM]	residual activity [6] [%]	residual activity [7] [%]	solubility [8]	residual activity [9] [%]	residual activity [10] [%]	further results
O=C1c2ccccc2C(=O)c2oc(-c3ccccc3)nc21							inhibition [5]: 100%
CN1CCN(CCOc2ccc(F)c(-c3nc4c(o3)C(=O)c3ccccc3C4=O)c2Cl)CC1		17	21.4	Soluble	8.7	26.7	
N#Cc1ccc(-c2nc3c(o2)C(=O)c2ccccc2C3=O)cc1		46.4	20.8	Insoluble	15.2	38.9	

Continued, in another order:

IC50 [2] [µM]	residual activity [6] [%]	residual activity [7] [%]	solubility [8]	residual activity [9] [%]	residual activity [10] [%]	SMILES	further results
0.037						C#CCCC1(CCN2CC[C@@H](Oc3cccc(-c4nc5c(o4)C(=O)c4ccccc4C5=O)c3)C2)N=N1	Activity [1]: Active; Activity [3]: Active; Activity [4]: Active
	23.1	21.6	Insoluble	13.2	54.4	O=C1c2ccccc2C(=O)c2oc(-c3cccc(C(F)(F)F)c3)nc21	
6.12						C#CCCC1(CCN2CC[C@@H](Oc3cccc(-c4nc5c([nH]4)C(=O)c4ccccc4C5=O)c3)C2)N=N1	Activity [11]: Active
